Assay [1] deals with full length SMN2 minigene mRNA (FL SMN2mini) in HEK293H cells stably transfected with the SMN2-A minigene construct. As to the kind of experiment: SMN2 minigene mRNA splicing RT-qPCR assay in cultured cells. Type of assay: cell-based. To be noted: Homo sapiens, HEK293-H, 24 hours, 7-point concentration curve, concentration giving 1.5-fold FL SMN2mini mRNA vs vehicle, read-out: EC1.5x minigene (EC1.5x concentration for production of full length SMN2 minigene mRNA). An outline of the steps: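 Stably transfected HEK293H cells, 10,000/well in DMEM/10% FBS with hygromycin, attached 6 h, then received compound for 24 h at 37° C in duplicate at 7 concentrations. Multiplex RT-qPCR with GAPDH used primers that detect only the minigene. An efficiency-corrected ΔΔCt, GAPDH- and vehicle-normalized, gave EC1.5x concentrations.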
(In general: In qPCR the cycle at which signal appears reflects the starting amount.)

Another assay concerns SMN protein. As to the kind of experiment: SMN protein assay (HTRF) in cultured SMA patient fibroblast cells. To be noted: SMA Type 1 human fibroblasts GM03813, 48 hours; for EC1.5x SMN protein (EC1.5x concentration for SMN protein expression): 7-point concentration curve, concentration giving 1.5 times SMN protein vs vehicle; for max. fold increase (maximum fold increase of SMN protein): 7-point concentration data, fold vs vehicle control. The assay is classed as cell-based. An outline of the steps:
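SMA patient fibroblasts seeded at 5,000 cells/well, treated 48 h at 37 °C in triplicate per concentration (7-point series). Lysed in RIPA with protease inhibitors; SMN read by HTRF (anti-SMN d2/kryptate, overnight RT), 665/620 nm ratio. ΔF vs blank, expressed as fold over vehicle; EC1.5x and maximum fold increase derived.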
In general terms: In TR-FRET formats the signal depends on donor and acceptor labels being close together.

Counter-ions that a name gives are not always drawn.

As to `Cc1cn2cc(NC(=O)c3ccc(C4=CCNCC4)nc3)ccc2n1.Cl` [Example 77, N-(2-methylimidazo[1,2-a]pyridin-6-yl)-6-(1,2,3,6-tetrahydropyridin-4-yl)nicotinamide hydrochloride], in assay [1], the EC (1.5-fold) is 0.0641 µM. In addition, in the assay with SMN protein, the “EC1.5x SMN protein (EC1.5x concentration for SMN protein expression)” value (“EC1.5x SMN protein” below) was determined as 0.2279 µM and the “max. fold increase (maximum fold increase of SMN protein)” value (shortened to “max. fold increase”) amounted to 1.6649.
For `Cc1cn2cc(NC(=O)c3ccc(C4CCN(C)CC4)nc3)ccc2n1` [Example 78, N-(2-methylimidazo[1,2-a]pyridin-6-yl)-6-(1-methylpiperidin-4-yl)nicotinamide], the EC (1.5-fold) in assay [1] is 0.622 µM. Also, in the assay on SMN protein, the “EC1.5x SMN protein” value was determined as 1.013 µM and the “max. fold increase” value is 1.7897.
As for `Cc1cn2cc(NC(=O)c3ccc(C4CCNCC4)nc3)cc(F)c2n1` [Example 79, N-(8-fluoro-2-methylimidazo[1,2-a]pyridin-6-yl)-6-(piperidin-4-yl)nicotinamide dihydrochloride], the EC (1.5-fold) in assay [1] came to 0.0559 µM. In the assay on SMN protein, the “EC1.5x SMN protein” value was 0.2559 µM and the “max. fold increase” value is 1.6574.
On the same counts, the results for `Cc1cn2cc(NC(=O)c3ccc(C4CCN(C)CC4)nc3)cc(F)c2n1` [Example 80, N-(8-fluoro-2-methylimidazo[1,2-a]pyridin-6-yl)-6-(1-methylpiperidin-4-yl)nicotinamide] are 0.115 µM, 0.52 µM and 1.5928.
As for `Cc1cn2cc(NC(=O)c3ccc(C4CCNCC4)cc3F)cc(F)c2n1.Cl` [Example 81, 2-fluoro-N-(8-fluoro-2-methylimidazo[1,2-a]pyridin-6-yl)-4-(piperidin-4-yl)benzamide hydrochloride], the EC (1.5-fold) in assay [1] turned out to be 0.0374 µM. Further, in the assay with SMN protein, the “EC1.5x SMN protein” value came to 0.2723 µM and the “max. fold increase” value came to 1.6719.
